Columns and labels:
Assay type in all cases: physicochemical
[1] = Gelation of N,N′-dialkyladaramides (1%) in mixtures of solvents; parameters: key: g = gelation; s = soluble; p = precipitates; c = crystallizes; ns = not soluble; v = viscous; g* = unstable gel, precipitates; cg = crystalline gel; conditions: 1% gelling agent
From the text: (§1) Preferred examples include aromatic and nonaromatic hydrocarbons, alcohols, ethers, esters, aldehydes, alkanoic acids, epoxides, amines, halogenated hydrocarbons, silicon oils, vegetable oils, phosphoric esters, sulfoxides, water and mixtures thereof. In order to obtain a gel, the gelling agent or thickener is preferably mixed with the composition to be transformed to a gel in an amount of between 0.01 and 50 wt. %, based on the weight of the composition. In a preferred embodiment, the mixture of the gelling agent or thickener and the composition is heated to allow for an even better gel formation or thickening. Typically, the heating will involve raising the temperature of the mixture to about 30-175° C. until a clear solution is obtained. In an alternative embodiment, the gelling agent is first dissolved in a polar or apolar solvent and then added to or sprayed into a composition or solvent to be converted into a gel.
Gelation of N,N′-dialkyladaramides (1%) in Mixtures of Solvents

[2] = Solvent scope of N,N′-dialkylaldaramides (1%) or N,N′-dialkylpentaramides (1%): gelation/solubility behaviour in solvents; parameters: key: g = gelation; s = soluble; p = precipitates; c = crystallizes; ns = not soluble; v = viscous; g* = unstable gel, precipitates; cg = crystalline gel; conditions: 1% gelling agent
From the text: It will be understood that the use of the present gelling agents or thickeners to prepare a gel or to thicken a composition is also encompassed by the invention. As is well known, gelling behavior of compounds or compositions is highly unpredictable. […] Preferably, the gelling phenomenon is thermo reversible.
as §1
Solvent scope of N,N′-dialkylaldaramides (1%) or N,N′-dialkylpentaramides (1%) 1-24 refers to the compounds prepared in Examples 1-23)

[3] = Cold gelation: addition of a solution of the gelling agent (10% in NMP, 0.05 ml) to an organic solution (0.5 ml); parameters: key: g = gelation; s = soluble; p = precipitates; c = crystallizes; ns = not soluble; v = viscous; g* = unstable gel, precipitates; cg = crystalline gel; conditions: for Cold gelation in 1,2-dichloroethane: 0.05 ml added to 0.5 ml 1,2-dichloroethane; for Cold gelation in Toluene: 0.05 ml added to 0.5 ml Toluene; for Cold gelation in cyclohexane: 0.05 ml added to 0.5 ml cyclohexane; for Cold gelation in methyl laurate: 0.05 ml added to 0.5 ml methyl laurate; for Cold gelation in n-butyl acetate: 0.05 ml added to 0.5 ml n-butyl acetate
From the text: as §1
Addition of a solution of the gelling agent (10% in NMP, 0.05 ml) to an organic solution (0.5 ml, “cold gelation”)

[4] = Maximum gelator concentration
From the text: Maximum gelator concentration of 5 (C6-Glu-C6) and 15 (C12-Glu-C12)

[5] = Solubility in several solvents tested (for NMR)
Experimental: Synthesis of didodecyl galactaramide. Diethyl galacterate (2.66 g, 10.0 mmol) was added to a solution of dodecylamine (3.75 g, 20.5 mmol) in EtOH (50 ml). After 72 hours stirring, the precipitate was filtered (yield 4.87 g, 8.9 mmol, 89%).
Synthesis of dicyclododecyl galactaramide. Diethyl galacterate (2.67 15 g, 10.0 mmol) was added to a solution of cyclododecylamine (3.78 g, 20.7 mmol) in EtOH (50 ml). After 48 hours stirring, the precipitate was filtered and washed with H2O and EtOH (yield 2.43 g, 4.5 mmol, 45%).

Gelation/solubility behaviour in 1,2-dichloroethane [2] | Gelation/solubility behaviour in 2-octanol [2] | Gelation/solubility behaviour in 2-propanol [2] | Gelation/solubility behaviour in Cyclohexane [2] | Gelation/solubility behaviour in Dimethylsulfoxide [2] | Gelation/solubility behaviour in Ethanol [2] | Gelation/solubility behaviour in Hexadecane [2] | Gelation/solubility behaviour in Toluene [2] | Gelation/solubility behaviour in Water [2] | Gelation/solubility behaviour in n-butylacetate [2] | Gelation/solubility behaviour in p-xylene [2] | Cold gelation in 1,2-dichloroethane [3] | Cold gelation in Toluene [3] | Cold gelation in cyclohexane [3] | Cold gelation in methyl laurate [3] | Cold gelation in n-butyl acetate [3] | Gelation/solubility behaviour in methyl benzoic acid [2] | Gelation/solubility behaviour in silicon oil [2] | Compound | also measured
p | ns | ns | ns | s | p | ns | ns | ns | ns | ns | p | p | p | p | p | – | – | CCCCCCCCCCCCNC(=O)[C@@H](O)[C@@H](O)[C@H](O)[C@@H](O)C(=O)NCCCCCCCCCCCC [Example 12, didodecyl D-glucaramide] | Gelation in cyclohexane [1]: ns; Gelation in Dioxane [1]: c; Gelation in H2O [1]: ns; Gelation in dioxane/H2O 1:1 [1]: ns; Gelation in dioxane/H2O 1:2 [1]: ns; Gelation in dioxane/H2O 2:1 [1]: c; Gelation in dioxane/H2O 3:1 [1]: c
cg | cg | cg | – | cg | cg | ns | – | ns | – | – | c | c | p | c | c | – | – | O=C(NC1CCCCC1)[C@@H](O)[C@@H](O)[C@H](O)[C@@H](O)C(=O)NC1CCCCC1 [Example 5, dicyclohexyl D-glucaramide] | Maximum gelator concentration in 1,2-dichloroethane ([4]; 1,2-dichloroethane): <5%; Maximum gelator concentration in Toluene ([4]; Toluene): <2.5%; Maximum gelator concentration in cyclohexane ([4]; cyclohexane): <5%; Maximum gelator concentration in methyl laurate ([4]; methyl laurate): <2.5%; Maximum gelator concentration in n-butylacetate ([4]; n-butylacetate): <2.5%; Maximum gelator concentration in silicon oil (Dow Corning 702) ([4]; silicon oil (Dow Corning 702)): <2.5%
ns | ns | ns | ns | ns | ns | ns | ns | ns | ns | ns | – | – | – | – | – | ns | ns | O=C(NC1CCCCCCCCCCC1)[C@@H](O)[C@H](O)[C@H](O)[C@@H](O)C(=O)NC1CCCCCCCCCCC1 [Example 17, dicyclododecyl galactaramide] | Gelation/solubility behaviour in 2-methoxyethanol [2]: ns; Gelation/solubility behaviour in methyl laurate [2]: ns; Solubility in several solvents tested [5]: low solubility
s | s | s | g* | s | s | p | p | c | p | p | – | – | – | – | – | – | – | CC(C)=CCCC(C)CCNC(=O)[C@@H](O)[C@@H](O)[C@H](O)[C@@H](O)C(=O)NCCC(C)CCC=C(C)C (stereo partly drawn) [Example 11, dicitronellyl D-glucaramide] | Gelation in cyclohexane [1]: g*; Gelation in Dioxane [1]: s; Gelation in H2O [1]: c; Gelation in cyclohexane/dioxane 1:1 ([1]; cyclohexane/dioxane 1:1): s; Gelation in dioxane/H2O 1:1 [1]: p; Gelation in dioxane/H2O 1:2 [1]: p; Gelation in dioxane/H2O 2:1 [1]: s; Gelation in dioxane/H2O 3:1 [1]: s
ns | ns | ns | ns | s | c | ns | ns | ns | ns | ns | – | – | – | – | – | – | – | CCCCCCCCNC(=O)[C@@H](O)[C@H](O)[C@H](O)[C@@H](O)C(=O)NCCCCCCCC [Example 10, dioctyl galactaramide] | –
p | c | p | g | p | p | p | p | ns | c | p | – | – | – | – | – | p | v | CCCCCCCCCCCCNC(=O)[C@@H](O)[C@@H](O)[C@H](OC)[C@@H](O)C(=O)NCCCCCCCCCCCC [Example 21, 3-O-methyl-didodecyl D-glucaramide] | –
ns | ns | c | ns | c | c | ns | ns | ns | ns | ns | – | – | – | – | – | – | – | CCCCCCCCNC(=O)[C@@H](O)[C@@H](O)[C@H](O)[C@H](O)C(=O)NCCCCCCCC [Example 9, dioctyl D-mannaramide] | –
ns | ns | ns | ns | ns | ns | ns | ns | ns | ns | ns | – | – | – | – | – | – | – | CCCCCCCCCCCCNC(=O)[C@@H](O)[C@H](O)[C@H](O)[C@@H](O)C(=O)NCCCCCCCCCCCC [Example 14, didodecyl galactaramide] | Solubility in several solvents tested [5]: low solubility
s | s | s | s | s | s | s | s | p | s | s | s | s | s | s | s | s | s | di-8-pentadecyl D-glucaramide [Example 18] | Gelation/solubility behaviour in 2-methoxyethanol [2]: s; Gelation/solubility behaviour in methyl laurate [2]: s
